Assay results published in PubChem BioAssay AID330 (DTP/NCI, 2004).
Several values for one entry are separate records, joined by “and”; a condition that tells them apart may be missing. Equal entries are not always repeated. Inconclusive results and toxic doses are left out. How the source made its calls: active means survival T/C of 150% or more; inactive means T/C below 125% in these data.

Tested on: P388 leukemia ip, CD2F1 mice, survival T/C
Assay: NCI In Vivo Anticancer Drug Screen. Data for tumor model P388 Leukemia (intraperitoneal) in CD2F1 (CDF1) mice
Details: endpoint: median survival time, higher = longer survival
Summary of the method: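 Mice carrying the transplanted tumor received test compound or vehicle. Survival was recorded in each group, and the value is the treated-group measurement divided by that of the vehicle-treated control group.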

[1] = dose: 50.0 mg/kg/injection, schedule: Q01DX005 (ip), vehicle: saline
[2] = dose: 100.0 mg/kg/injection, schedule: Q01DX005 (ip), vehicle: saline
[3] = dose: 200.0 mg/kg/injection, schedule: Q01DX005 (ip), vehicle: saline
[4] = dose: 50.0 mg/kg/injection, schedule: Q01DX005 (ip), vehicle: Klucel (hydroxypropylcellulose) (HPC)
[5] = dose: 100.0 mg/kg/injection, schedule: Q01DX005 (ip), vehicle: Klucel (hydroxypropylcellulose) (HPC)
[6] = dose: 200.0 mg/kg/injection, schedule: Q01DX005 (ip), vehicle: Klucel (hydroxypropylcellulose) (HPC)
[7] = dose: 100.0 mg/kg/injection, schedule: Q04DX002 (ip), vehicle: Klucel (hydroxypropylcellulose) (HPC)
[8] = dose: 200.0 mg/kg/injection, schedule: Q04DX002 (ip), vehicle: Klucel (hydroxypropylcellulose) (HPC)
[9] = dose: 400.0 mg/kg/injection, schedule: Q04DX002 (ip), vehicle: Klucel (hydroxypropylcellulose) (HPC)
[10] = dose: 100.0 mg/kg/injection, schedule: Q01DX009 (ip), vehicle: saline
[11] = dose: 200.0 mg/kg/injection, schedule: Q01DX009 (ip), vehicle: saline
[12] = dose: 50.0 mg/kg/injection, schedule: Q01DX009 (ip), vehicle: Klucel (hydroxypropylcellulose) (HPC)
[13] = dose: 100.0 mg/kg/injection, schedule: Q01DX009 (ip), vehicle: Klucel (hydroxypropylcellulose) (HPC)
[14] = dose: 200.0 mg/kg/injection, schedule: Q01DX009 (ip), vehicle: Klucel (hydroxypropylcellulose) (HPC)
[15] = dose: 100.0 mg/kg/injection, schedule: Q01DX001 (ip), vehicle: saline with Tween-80
[16] = dose: 12.5 mg/kg/injection, schedule: Q01DX009 (ip), vehicle: saline
[17] = dose: 25.0 mg/kg/injection, schedule: Q01DX009 (ip), vehicle: saline
[18] = dose: 50.0 mg/kg/injection, schedule: Q01DX009 (ip), vehicle: saline

Measured: T/C

CC(C)(C)OC(=O)N1CCCC1C(=O)N1CCCC1C(=O)Oc1ccccc1 (stereo not given)
inactive: [1] 100 % of control | [2] 100 % of control | [3] 100 % of control

CN(C)c1ccc(C(c2cc3c(cc2O)OCO3)N2CCCCC2)cc1 (stereo not given)
inactive: dose: 60.0 mg/kg/injection, schedule: Q01DX005 (ip), vehicle: saline with Tween-80 113 % of control | dose: 120.0 mg/kg/injection, schedule: Q01DX005 (ip), vehicle: saline with Tween-80 121 % of control

CNc1nc(NC)nc(N(C)C=O)n1
inactive: dose: 25.0 mg/kg/injection, schedule: Q01DX009 (ip), vehicle: saline with Tween-80 95 % of control | dose: 50.0 mg/kg/injection, schedule: Q01DX009 (ip), vehicle: saline with Tween-80 90 % of control

CC1(C)CC2C3=CCC4C5(C)CCC(O)C(C)(C)C5CCC4(C)C3(C)CC(O)C2(CO)C(O)C1O (stereo not given)
inactive: dose: 3.5 mg/kg/injection, schedule: Q01DX005 (ip), vehicle: Klucel (hydroxypropylcellulose) (HPC) 99 % of control | dose: 7.0 mg/kg/injection, schedule: Q01DX005 (ip), vehicle: Klucel (hydroxypropylcellulose) (HPC) 99 % of control | dose: 14.0 mg/kg/injection, schedule: Q01DX005 (ip), vehicle: Klucel (hydroxypropylcellulose) (HPC) 95 % of control | dose: 28.0 mg/kg/injection, schedule: Q01DX005 (ip), vehicle: Klucel (hydroxypropylcellulose) (HPC) 96 % of control

CC1C(O)=C(c2ccccc2)P(=O)(Cc2ccccc2)C1C (stereo not given)
inactive: dose: 60.0 mg/kg/injection, schedule: Q01DX005 (ip), vehicle: saline 101 % of control | dose: 120.0 mg/kg/injection, schedule: Q01DX005 (ip), vehicle: saline 100 % of control | dose: 240.0 mg/kg/injection, schedule: Q01DX005 (ip), vehicle: saline 93 % of control

CS(=O)(=O)c1noc(N)n1
inactive: [1] 115 % of control | [2] 113 % of control | [3] 115 % of control

Cc1cccc(C)c1OCc1n[nH]c(=S)n1-c1ccccc1
inactive: [4] 89 % of control | [5] 90 % of control | [6] 90 % of control

O=C1CCCCC1N1C(=O)c2ccccc2C1=O (stereo not given)
inactive: [7] 101 % of control | [8] 97 % of control | [9] 97 % of control

COc1ccc(CO)cc1O
inactive: [10] 105 % of control and 97 % of control | [11] 104 % of control and 107 % of control | dose: 400.0 mg/kg/injection, schedule: Q01DX009 (ip), vehicle: saline 104 % of control | dose: 600.0 mg/kg/injection, schedule: Q01DX009 (ip), vehicle: saline 95 % of control and 96 % of control

O=C1C=CC(=O)N1C(=O)NC(NC(=O)N1C(=O)C=CC1=O)c1cccc2ccccc12
inactive: dose: 50.0 mg/kg/injection, schedule: Q01DX005 (ip), vehicle: saline with Tween-80 100 % of control | dose: 100.0 mg/kg/injection, schedule: Q01DX005 (ip), vehicle: saline with Tween-80 99 % of control | dose: 200.0 mg/kg/injection, schedule: Q01DX005 (ip), vehicle: saline with Tween-80 90 % of control

CC(=O)C1C(=O)C(=O)N(Cc2ccccc2)C1=O (stereo not given)
inactive: [12] 96 % of control | [13] 114 % of control | [14] 100 % of control

NCC[Se][Se]CCN
inactive: dose: 1.56 mg/kg/injection, schedule: Q01DX009 (ip), vehicle: saline 98 % of control | dose: 3.12 mg/kg/injection, schedule: Q01DX009 (ip), vehicle: saline 98 % of control | dose: 6.25 mg/kg/injection, schedule: Q01DX009 (ip), vehicle: saline 104 % of control

O=C(NC(=S)c1cccs1)NS(=O)(=O)c1ccc(Cl)cc1
inactive: dose: 25.0 mg/kg/injection, schedule: Q01DX001 (ip), vehicle: saline with Tween-80 98 % of control | dose: 50.0 mg/kg/injection, schedule: Q01DX001 (ip), vehicle: saline with Tween-80 98 % of control | [15] 98 % of control

O=C(Nc1ccccc1)c1cnc[nH]1
inactive: dose: 25.0 mg/kg/injection, schedule: Q01DX009 (ip), vehicle: Klucel (hydroxypropylcellulose) (HPC) 99 % of control | [12] 102 % of control | [13] 102 % of control | [14] 96 % of control

C[C@@H]1CN(c2ccccc2)C[C@@H](C)OS(=O)O1
inactive: [7] 104 % of control | [8] 97 % of control | [9] 100 % of control

COc1ncnc(Sc2ncccn2)c1[N+](=O)[O-]
inactive: [16] 103 % of control and 89 % of control | [17] 103 % of control and 105 % of control | [18] 102 % of control and 104 % of control and 90 % of control | [10] 100 % of control and 123 % of control and 89 % of control | [11] 109 % of control

COC(=O)c1cc(-c2ccccc2)[nH]c1-c1ccccc1
inactive: [16] 105 % of control | [17] 104 % of control | [18] 102 % of control

CC(C=NC1CCCCC1)c1ccccc1 (stereo not given)
inactive: [18] 96 % of control | [10] 87 % of control | [11] 102 % of control

Nc1ccc(N=Nc2cccc3c(N=Nc4ccc(N)nc4N)cccc23)c(N)n1
inactive: dose: 25.0 mg/kg/injection, schedule: Q01DX005 (ip), vehicle: Klucel (hydroxypropylcellulose) (HPC) 97 % of control | [4] 100 % of control | [5] 98 % of control | [6] 93 % of control

COc1ccc(C2=C/C(=C/c3ccc(N(CCC#N)CCC#N)cc3)C(=O)O2)cc1
inactive: [15] 97 % of control | dose: 200.0 mg/kg/injection, schedule: Q01DX001 (ip), vehicle: saline with Tween-80 95 % of control | dose: 400.0 mg/kg/injection, schedule: Q01DX001 (ip), vehicle: saline with Tween-80 92 % of control

COc1cccc2c1C(=O)c1c(O)c3c(c(O)c1C2=O)CC(O)(C(C)=O)CC3OC1CC(SC)C(OC(C)=O)C(C)O1 (stereo not given)
inactive: dose: 3.13 mg/kg/injection, schedule: Q04DX003 (ip), vehicle: distilled water + Tween-80 100 % of control | dose: 3.13 mg/kg/injection, schedule: Q04DX003 (ip), vehicle: water 101 % of control | dose: 6.25 mg/kg/injection, schedule: Q04DX003 (ip), vehicle: distilled water + Tween-80 105 % of control | dose: 6.25 mg/kg/injection, schedule: Q04DX003 (ip), vehicle: water 96 % of control | dose: 12.5 mg/kg/injection, schedule: Q04DX003 (ip), vehicle: distilled water + Tween-80 97 % of control | dose: 12.5 mg/kg/injection, schedule: Q04DX003 (ip), vehicle: water 97 % of control | dose: 25.0 mg/kg/injection, schedule: Q04DX003 (ip), vehicle: distilled water + Tween-80 100 % of control | dose: 25.0 mg/kg/injection, schedule: Q04DX003 (ip), vehicle: water 100 % of control | dose: 50.0 mg/kg/injection, schedule: Q04DX003 (ip), vehicle: distilled water + Tween-80 110 % of control | dose: 50.0 mg/kg/injection, schedule: Q04DX003 (ip), vehicle: water 96 % of control

CN(C)CCCSc1nnc(-c2ccc3c(c2)OCO3)o1
inactive: dose: 50.0 mg/kg/injection, schedule: Q04DX002 (ip), vehicle: water 106 % of control | dose: 100.0 mg/kg/injection, schedule: Q04DX002 (ip), vehicle: water 100 % of control | dose: 200.0 mg/kg/injection, schedule: Q04DX002 (ip), vehicle: water 101 % of control

Cc1ncc(CNC(=O)NCCCl)c(N)n1
inactive: [12] 102 % of control | [13] 103 % of control | [14] 108 % of control
